One series addresses T1, Rabbit lung ACE (Oryctolagus cuniculus, UniProt P12822).
T1 construct: Enzymes including pepsin, pancreatin and rabbit lung ACE were purchased from Sigma Chemical Co; purchased Sigma Chemical Co. (St. Louis, MO, USA); host or cells: rabbit lung (tissue-derived)
T1 sequence (P12822 34-1310): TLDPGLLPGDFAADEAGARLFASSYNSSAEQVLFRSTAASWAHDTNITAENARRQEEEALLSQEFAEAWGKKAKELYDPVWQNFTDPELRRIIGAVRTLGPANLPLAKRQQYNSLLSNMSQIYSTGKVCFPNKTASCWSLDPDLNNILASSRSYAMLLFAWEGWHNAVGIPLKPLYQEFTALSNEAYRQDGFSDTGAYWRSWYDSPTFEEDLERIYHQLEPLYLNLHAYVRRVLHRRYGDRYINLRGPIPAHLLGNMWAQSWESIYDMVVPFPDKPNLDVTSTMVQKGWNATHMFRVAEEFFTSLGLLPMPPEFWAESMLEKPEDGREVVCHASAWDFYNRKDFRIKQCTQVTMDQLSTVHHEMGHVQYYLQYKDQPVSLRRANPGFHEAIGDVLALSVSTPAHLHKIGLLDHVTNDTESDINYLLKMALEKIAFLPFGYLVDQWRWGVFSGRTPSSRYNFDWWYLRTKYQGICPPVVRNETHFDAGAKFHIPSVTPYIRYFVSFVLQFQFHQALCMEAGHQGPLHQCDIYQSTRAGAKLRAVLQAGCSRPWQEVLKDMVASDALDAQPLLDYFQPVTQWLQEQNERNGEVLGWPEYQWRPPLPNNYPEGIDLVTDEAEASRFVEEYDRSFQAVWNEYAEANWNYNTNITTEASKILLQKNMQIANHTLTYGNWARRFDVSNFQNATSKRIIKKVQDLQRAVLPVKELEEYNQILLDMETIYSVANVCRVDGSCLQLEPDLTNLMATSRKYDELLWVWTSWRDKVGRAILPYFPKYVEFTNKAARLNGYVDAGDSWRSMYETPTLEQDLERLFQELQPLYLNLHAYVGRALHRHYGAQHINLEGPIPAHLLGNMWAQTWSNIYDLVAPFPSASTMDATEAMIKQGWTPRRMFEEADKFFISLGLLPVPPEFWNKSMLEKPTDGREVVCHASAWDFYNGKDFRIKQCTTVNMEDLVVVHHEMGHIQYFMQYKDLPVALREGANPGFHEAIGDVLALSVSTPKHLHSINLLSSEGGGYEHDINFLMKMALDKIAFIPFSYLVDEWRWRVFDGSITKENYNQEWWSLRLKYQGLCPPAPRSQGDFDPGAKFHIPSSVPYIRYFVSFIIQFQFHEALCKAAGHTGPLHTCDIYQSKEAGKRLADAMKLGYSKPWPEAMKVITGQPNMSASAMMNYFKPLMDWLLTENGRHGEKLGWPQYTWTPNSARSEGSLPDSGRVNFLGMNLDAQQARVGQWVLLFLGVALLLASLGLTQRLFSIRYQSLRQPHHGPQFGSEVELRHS
The experiment in a line: ACE inhibition assay (RP-HPLC, HHL substrate). Format: biochemical. Particulars: for Inhibition (%): at the peak's own peptide concentration; for IC50: identified peptides of peaks E6 to E9. The method, then: RP-HPLC was used to measure ACE inhibition by means of a method devised by Cushman and Cheung. The sample consisted of 15 mM HHL in Na-borate buffer (100 mM, pH 8.3) plus NaCl (300 mM). […] Equal volumes (75 μL) of the ACE solution and samples passed through a 5-kDa MWCO membrane were then incubated for 10 min at 37 °C. […] of the solution of HHL was then added and incubation was continued for a further 30 min. 1.0 N HCl (250 μL) was used to stop the reaction and 10 μL was injected into a Luna C18 column. […] Finally, inhibition activity was calculated using the following formula:Inhibition activity (%) = ((Ec - Es) / (Ec - Eb)) × 100where Ec is the absorbance when the buffer was added as control, Es is the absorbance when the sample was added to the reaction mixture (sample), and Eb is the absorbance when the stop solution was added before the reaction occurred (blank). […] The data used in this study were all averages of three readings or standard deviations (SDs).

Details of series [1]: method as in doi:10.1016/j.idairyj.2015.09.004. Particulars: human volunteers, 100 mg oral, after 30 min; cited from earlier work.
The next series deals with ACE. Conditions: cited from earlier work.
For the next series, the system named is ACE activity in plasma. The arrangement: method as in doi:10.1016/j.idairyj.2015.09.004. Conditions: human volunteers, 100 mg oral, at 1.5 h; cited from earlier work.
The target in series [2] is angiotensin I-converting enzyme (rabbit lung ACE) (rabbit) (UniProt P12822).
Series [3] shares this target. This is another data set of the same source.
Setting [4] is: RP-HPLC peaks of fraction E from PX-5G.
[5] abbreviates: equivalent of the μM value, read-out: IC50 (mg/mL) (converted).
[6] abbreviates: peptides from Pacific cod skin gelatin hydrolysates (<1 kDa).
[7] abbreviates: dipeptides from salmon muscle hydrolysate.

Read-outs that look alike come from different tables or passages of the source. Peptide text beside a SMILES is read from it.

With `C[C@H](NC(=O)[C@H](C)NC(=O)[C@@H](N)Cc1c[nH]c2ccccc12)C(=O)O` [Peak E6, Trp-Ala-Ala] (H-Trp-Ala-Ala-OH), on Rabbit lung ACE (setting [4]), the “Inhibition (%)” value came to 41.9%. Further, the IC50 is 119 µM on Rabbit lung ACE (setting [5]) and 118 ± 2.8 µM on Rabbit lung ACE (read-out: IC50).
`C[C@H](N)C(=O)N[C@@H](Cc1c[nH]c2ccccc12)C(=O)N[C@@H](Cc1c[nH]c2ccccc12)C(=O)O` [Peak E7, Ala-Trp-Trp] (H-Ala-Trp-Trp-OH): the “Inhibition (%)” value at Rabbit lung ACE (setting [4]) came to 81.1%. Besides, the IC50 on Rabbit lung ACE (setting [5]) is 9.4 µM; on Rabbit lung ACE (read-out: IC50) it was 9.4 ± 0.6 µM.
With `CC[C@H](C)[C@H](N)C(=O)N[C@@H](Cc1c[nH]c2ccccc12)C(=O)N[C@@H](Cc1c[nH]c2ccccc12)C(=O)O` [Peak E8, Ile-Trp-Trp] (H-Ile-Trp-Trp-OH), the “Inhibition (%)” value on Rabbit lung ACE (setting [4]) amounted to 93.4%. In addition, the IC50 on Rabbit lung ACE (setting [5]) was 0.516 µM; on Rabbit lung ACE (read-out: IC50) it was 0.51 ± 0.1 µM.
Regarding `CC(C)C[C@H](NC(=O)[C@@H](N)Cc1c[nH]c2ccccc12)C(=O)O` [Peak E9, Trp-Leu] (H-Trp-Leu-OH; N-terminus and C-terminus assumed), the maximum plasma concentration in series [1] was 29 to 36 pmol/mL. At Rabbit lung ACE (setting [4]), the “IER (inhibitory efficiency ratio)” value amounted to 3021.4 %/mg/mL and the “Inhibition (%)” value stood at 42.3%. Also, the IC50 on Rabbit lung ACE (setting [5]) is 26.8 µM. The IC50 at Rabbit lung ACE (read-out: IC50) came to 26.8 ± 0.9 µM. Also, in the series with ACE, the ACE-inhibition mode entry is reported as “noncompetitive inhibitors” and the IC50 is 29.9 to 34.1 µM. Further, in the series on ACE activity in plasma, the “decrease of ACE activity in plasma” value is 16–22%.
For the compound Ala-Trp-Trp (peptide), the Inhibition (%) of ACE enzyme activity by peak E7 at 0.058 mg/mL peptide in series [2] was 81.1%. Also, in series [3], the IC50 of inhibition of ACE enzyme activity (hippuric acid released from HHL, RP-HPLC, 37 °C, pH 8.3) came out at 9.4 μM.
With G-A-S-S-G-M-P-G (GASSGMPG), the IC50 in the series with ACE (setting [6]) was 6.9 µM.
In the case of G–R-G-S–V-P–A–Hyp–G-P, the IC50 in the series with ACE (peptide from squid skin collagen hydrolysate fraction <1 kDa) is 47.8 µM.
In turn, Ile-Trp-Trp (peptide) returned an Inhibition (%) of ACE enzyme activity by peak E8 at 0.028 mg/mL peptide in series [2] of 93.4%. In series [3], the IC50 of inhibition of ACE enzyme activity (hippuric acid released from HHL, RP-HPLC, 37 °C, pH 8.3) was 0.51 μM.
As to L-A-Y-A, the IC50 in the series with ACE (setting [6]) was 14.5 µM.
For Leu-Trp, the ACE-inhibition mode entry in the series with ACE is recorded as “noncompetitive inhibitors”.
As for Met-Trp, the IC50 in the series with ACE (setting [7]) is 9.8 µM.
The compound Trp-Ala-Ala (peptide) showed an Inhibition (%) of ACE enzyme activity by peak E6 at 0.048 mg/mL peptide in series [2] of 41.9%. In addition, the IC50 of inhibition of ACE enzyme activity (hippuric acid released from HHL, RP-HPLC, 37 °C, pH 8.3) in series [3] came to 118 μM.
The compound Trp-Leu (peptide) returned an Inhibition (%) of ACE enzyme activity by peak E9 at 0.014 mg/mL peptide in series [2] of 42.3%. Moreover, the IC50 of inhibition of ACE enzyme activity (hippuric acid released from HHL, RP-HPLC, 37 °C, pH 8.3) in series [3] turned out to be 26.8 μM.
For Trp-Met, the IC50 in the series with ACE (setting [7]) was 98.6 µM.
As for “Val-Arg-Tyr-Leu (VRYL; printed: Val-Arg-Tyr-Leu)”, the “IC50 before hydrolysis with gastrointestinal proteases” value with ACE (peptide from Manchego cheese) was 9 µg/mL.
